Laboratory results taken from EP0073390A1, “Combination of active substances from kitasamycine and quinoxaline-di-N oxides” (BAYER AG, priority 1981, dated 1983).

Columns and labels:
Ferkel [1] = test: Feeding trial with piglets, Beispiel 2 (weight gain, feed conversion, back fat thickness by ultrasound); assay type: in vivo
Description: a) Tiercharakteristik und Futter
Die Ferkel wurden zu Versuchbeginn und in wöchentlichen oder vierzehntägigen Abständen bis zum Versuchsende gewogen.
Futtermenge und Mortalität wurden täglich notiert.
Die Rückenfettstärke wurde per Ultraschall am Versuchsende gemessen und auf 75 kg Lebendgewicht korrigiert.

Ferkel [2] = test: Feeding trial with piglets, Beispiel 1 (daily weight gain and feed conversion); assay type: in vivo
Description: a) Tier-Charakteristik und Futter
• a1) Ferkel • a2) Anzahl 30 • a3) Zucht große weiße Landrasse Kreuzungszucht • a4) Geschlecht männlich • a5) Alter etwa 8 bis 14 Wochen • a6) Gewicht 17,5 bis 45 kg • a7) Zustand gut • a8) Futter [formula]
Ingredientien: • Weizen, Gerste, Hirse, Kleie, Fleischmehl, Sojabohnenmehl, Baumwollsamenmehl, Sonnenblumensamenmehl, Lysin, Salz, Kalkstein, 2RO, MnO, Kupfer- und Eisensulfat, Kaliumjodid, Vitamine A, D, E, K, B/2, Niazin, Pantothensäure.
Die Behandlung der Tiere wurde in 5 Behandlungsgruppen durchgeführt. Das Anfangsgewicht für jede Gruppe war gleich.
Die Ferkel wurden […] gewogen. Es wurde die tägliche Gewichtszunahme und Futterverwertung bestimmt. Wöchentliches Wiegen und individuelle Futteraufnahme wurden notiert.

**Q.** Which results are given for `Cc1c(C(=O)NCCO)[n+]([O-])c2ccccc2[n+]1[O-]` [d1)]?
**A.** Futterverwertung (Ferkel [1]; 40 kg bis 75 kg): 3,10 g/g; Gewichtszunahme (Ferkel [1]; 40 kg bis Ende): 641 g/Tag; Futterverwertung (Ferkel [1]; Beginn bis 40 kg): 2,30 g/g; Gewichtszunahme (Ferkel [1]; Beginn bis 40 kg): 499 g/Tag; Futterverwertung (Ferkel [1]; Beginn bis Ende): 2,74 g/g; Gewichtszunahme (Ferkel [1]; Beginn bis Ende): 573 g/Tag; Durchschnittliche tägliche Gewichtszunahme (Ferkel [2]; Beispiel 1, Ferkel, male, about 8 to 14 weeks, 17,5 bis 45 kg, Konzentration (ppm): d1) 50, d2) 50, d3) 25:25, d4) 12,5:12,5, Kontrolle 537): 593 g/Tag; Durchschnittliches Futterverwertungsverhältnis (Ferkel [2]; Beispiel 1; Ferkel; groups e1)-e4) correspond to d1)-d4); concentration column printed empty; e5) (presumably control) 2,72): 2,52 g/g
